# Reference: ChEMBL document CHEMBL4251732, “Discovery of Novel Indoleamine 2,3-Dioxygenase 1 (IDO1) and Histone Deacetylase (HDAC) Dual Inhibitors” (ACS Med Chem Lett, 2018)
# The source made the active and inactive calls. No cut-off for these calls is given here.
# Key:
# [1] = biological target: Histone deacetylase 1 (Homo sapiens, UniProt Q13547); experiment: Inhibition of recombinant human full length HDAC1 using fluorogenic substrate 3 after 30 mins by fluorescence assay
# [2] = biological target: T1, Indoleamine 2,3-dioxygenase 1 (Homo sapiens, UniProt P14902); experiment: Inhibition of recombinant human GST-tagged IDO1 (1 to 404 residues) using D-Tryptophan as substrate
# [3] = tested on: Lewis lung carcinoma cell line; experiment: Antiproliferative activity against mouse LLC cells after 48 hrs by CCK-8 assay; type: functional, cell-based
# [4] = tested on: CT26; experiment: Antiproliferative activity against mouse CT26 cells after 48 hrs by CCK-8 assay; type: functional, cell-based; settings: CT26, 48 h
# [5] = tested on: A549; experiment: Antiproliferative activity against human A549 cells after 48 hrs by CCK-8 assay; type: functional, cell-based; settings: A549, 48 h
# [6] = tested on: HCT-116; experiment: Antiproliferative activity against human HCT116 cells after 48 hrs by CCK-8 assay; type: functional, cell-based; settings: HCT-116, 48 h
# [7] = tested on: HT-29; experiment: Antiproliferative activity against human HT-29 cells after 48 hrs by CCK-8 assay; type: functional, cell-based; settings: HT-29, 48 h
# [8] = tested on: HCT-116; experiment: Induction of apoptosis in human HCT116 cells after 48 hrs by Annexin V-FITC/propidium iodide staining based flow cytometry; type: functional, cell-based
# [9] = tested on: HCT-116; experiment: Induction of apoptosis in human HCT116 cells at 5 uM after 48 hrs by Annexin V-FITC/propidium iodide staining based flow cytometry relative to control; type: functional
# [10] = tested on: HCT-116; experiment: Induction of apoptosis in human HCT116 cells at 10 uM after 48 hrs by Annexin V-FITC/propidium iodide staining based flow cytometry relative to control; type: functional
# [11] = tested on: HCT-116; experiment: Induction of apoptosis in human HCT116 cells at 20 uM after 48 hrs by Annexin V-FITC/propidium iodide staining based flow cytometry relative to control; type: functional
# [12] = tested on: HCT-116; experiment: Cell cycle arrest in human HCT116 cells assessed as accumulation at G2/M phase up to 48 hrs by propidium iodide staining based flow cytometry (reference value: 27.2%); type: functional
# [13] = tested on: HCT-116; experiment: Cell cycle arrest in human HCT116 cells assessed as accumulation at G2/M phase by propidium iodide staining based flow cytometry; type: functional; settings: TDE = time-dependent effect
# [14] = biological target: T1, Indoleamine 2,3-dioxygenase 1; experiment: Inhibition of IDO1 in IFN-gamma-stimulated human HeLa cells assessed as decrease in kynurenine levels after 48 hrs; type: cell-based
# [15] = tested on: HeLa; experiment: Cytotoxicity against human HeLa cells assessed as inhibition of cell growth after 48 hrs by CCK-8 assay; type: cell-based
# [16] = Ratio of LC50 for human HeLa cells to EC50 for IDO1 in IFN-gamma-stimulated human HeLa cells; type: toxicity
# [17] = biological target: Histone deacetylase 2 (Homo sapiens, UniProt Q92769); experiment: Inhibition of HDAC2 (unknown origin) using substrate 3 after 30 mins by fluorescence assay
# [18] = biological target: Histone deacetylase 3 (Homo sapiens, UniProt O15379); experiment: Inhibition of HDAC3 (unknown origin) using substrate 3 after 30 mins by fluorescence assay
# [19] = biological target: T2, Protein deacetylase HDAC6 (Homo sapiens, UniProt Q9UBN7); experiment: Inhibition of HDAC6 (unknown origin) using substrate 3 after 30 mins by fluorescence assay
# T2 sequence (Q9UBN7 whole entry): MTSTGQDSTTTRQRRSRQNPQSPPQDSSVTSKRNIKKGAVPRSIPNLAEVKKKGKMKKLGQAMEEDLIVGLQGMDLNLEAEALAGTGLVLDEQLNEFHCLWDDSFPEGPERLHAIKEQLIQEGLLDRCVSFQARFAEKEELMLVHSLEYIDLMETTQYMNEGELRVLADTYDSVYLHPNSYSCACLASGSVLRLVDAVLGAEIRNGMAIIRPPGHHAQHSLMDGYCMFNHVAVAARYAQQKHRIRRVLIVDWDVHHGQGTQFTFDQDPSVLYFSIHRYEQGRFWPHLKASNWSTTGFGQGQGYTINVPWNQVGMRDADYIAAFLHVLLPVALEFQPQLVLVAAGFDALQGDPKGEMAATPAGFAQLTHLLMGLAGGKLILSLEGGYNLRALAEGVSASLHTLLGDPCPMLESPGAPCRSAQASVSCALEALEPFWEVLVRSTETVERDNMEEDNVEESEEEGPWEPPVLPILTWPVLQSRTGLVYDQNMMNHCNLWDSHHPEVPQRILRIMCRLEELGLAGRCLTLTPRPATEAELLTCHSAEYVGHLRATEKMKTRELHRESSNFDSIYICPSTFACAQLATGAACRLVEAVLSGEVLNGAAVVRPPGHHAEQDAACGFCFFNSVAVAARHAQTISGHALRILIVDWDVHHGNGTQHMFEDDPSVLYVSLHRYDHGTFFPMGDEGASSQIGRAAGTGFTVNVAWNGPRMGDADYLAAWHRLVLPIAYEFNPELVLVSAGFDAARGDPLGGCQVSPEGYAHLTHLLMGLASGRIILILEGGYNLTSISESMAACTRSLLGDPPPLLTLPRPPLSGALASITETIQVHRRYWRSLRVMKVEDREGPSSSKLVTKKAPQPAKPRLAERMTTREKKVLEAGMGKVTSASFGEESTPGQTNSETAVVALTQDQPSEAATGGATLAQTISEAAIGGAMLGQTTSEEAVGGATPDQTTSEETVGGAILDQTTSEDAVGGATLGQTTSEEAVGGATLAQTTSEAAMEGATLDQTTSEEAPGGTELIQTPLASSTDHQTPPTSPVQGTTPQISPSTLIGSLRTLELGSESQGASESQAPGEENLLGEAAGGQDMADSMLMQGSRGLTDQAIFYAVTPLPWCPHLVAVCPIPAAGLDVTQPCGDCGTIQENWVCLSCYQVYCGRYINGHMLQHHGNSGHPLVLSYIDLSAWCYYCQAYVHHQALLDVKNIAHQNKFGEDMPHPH
# [20] = Half life in mouse liver microsomes at 1 uM by LC-MS/MS analysis; type: ADME, microsome
# [21] = Apparent clearance in mouse liver microsomes; type: ADME, microsome
# [22] = Cmax in Sprague-Dawley rat at 100 mg/kg, po administered as single dose via gavage by LC-MS/MS analysis; type: ADME, organism-based; set-up: dose 100 mg/kg, route oral; settings: in vivo
# [23] = Cmax in Sprague-Dawley rat at 2 mg/kg, iv administered as single dose by LC-MS/MS analysis; type: ADME, organism-based; set-up: dose 2 mg/kg, route intravenous; settings: in vivo
# [24] = Tmax in Sprague-Dawley rat at 100 mg/kg, po administered as single dose via gavage by LC-MS/MS analysis; type: ADME, organism-based; settings: in vivo
# [25] = Tmax in Sprague-Dawley rat at 2 mg/kg, iv administered as single dose by LC-MS/MS analysis; type: ADME, organism-based; settings: in vivo
# [26] = Half life in Sprague-Dawley rat at 100 mg/kg, po administered as single dose via gavage by LC-MS/MS analysis; type: ADME, organism-based; settings: in vivo
# [27] = Half life in Sprague-Dawley rat at 2 mg/kg, iv administered as single dose by LC-MS/MS analysis; type: ADME, organism-based; settings: in vivo
# [28] = AUC (0 to infinity) in Sprague-Dawley rat at 100 mg/kg, po administered as single dose via gavage by LC-MS/MS analysis; type: ADME, organism-based; set-up: dose 100 mg/kg, time infinity, route oral; settings: in vivo
# [29] = AUC (0 to infinity) in Sprague-Dawley rat at 2 mg/kg, iv administered as single dose by LC-MS/MS analysis; type: ADME, organism-based; set-up: dose 2 mg/kg, time infinity, route intravenous; settings: in vivo
# [30] = Oral bioavailability in Sprague-Dawley rat at 100 mg/kg administered as single dose via gavage by LC-MS/MS analysis; type: ADME, organism-based; settings: in vivo
# [31] = tested on: Mus musculus; experiment: In vivo inhibition of IDO1 in wild type C57BL/6 mouse assessed as reduction in kynurenine levels in plasma at 100 mg/kg, po administered via gavage after 3 to 8 hrs by LC-MS/MS analysis; type: functional, organism-based
# [32] = Stability of the compound in PBS buffer after 24 hrs; type: physicochemical
# [33] = Solubility of the compound in water; type: physicochemical
# [34] = tested on: Lewis lung carcinoma cell line; experiment: Antitumor activity against mouse LLC cells implanted in immunocompetent C57BL/6 mouse assessed as tumor growth inhibition at 100 mg/kg, po bid administered via gavage for 14 consecutive days measured every 4 days relative to control; type: functional; settings: 96 h, read-out: TGI
# [35] = tested on: Mus musculus; experiment: Toxicity in immunocompetent C57BL/6 mouse assessed as body weight loss at 100 mg/kg, po bid administered via gavage for 14 consecutive days measured 3 times per week; type: organism-based; settings: in vivo
# [36] = AUC in immunocompetent C57BL/6 mouse implanted with mouse LLC cells at 100 mg/kg, po bid administered via gavage; type: ADME, organism-based; settings: in vivo
# [37] = Half life in immunocompetent C57BL/6 mouse implanted with mouse LLC cells at 100 mg/kg, po bid administered via gavage; type: ADME, organism-based; settings: in vivo
# T1 sequence (P14902 whole entry, the tested form may be a part): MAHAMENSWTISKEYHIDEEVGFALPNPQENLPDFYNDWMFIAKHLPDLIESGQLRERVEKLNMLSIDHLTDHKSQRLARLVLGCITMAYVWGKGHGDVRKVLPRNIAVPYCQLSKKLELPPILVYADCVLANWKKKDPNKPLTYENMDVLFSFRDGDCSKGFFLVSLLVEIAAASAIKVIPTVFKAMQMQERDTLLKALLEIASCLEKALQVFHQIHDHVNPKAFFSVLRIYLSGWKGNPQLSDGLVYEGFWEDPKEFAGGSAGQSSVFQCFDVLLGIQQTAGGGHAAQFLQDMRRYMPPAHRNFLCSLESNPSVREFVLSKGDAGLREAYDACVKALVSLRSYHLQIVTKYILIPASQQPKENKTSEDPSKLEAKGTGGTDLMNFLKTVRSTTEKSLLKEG
# Chain of Histone deacetylase 1 (Q13547 whole entry, the tested form may be a part): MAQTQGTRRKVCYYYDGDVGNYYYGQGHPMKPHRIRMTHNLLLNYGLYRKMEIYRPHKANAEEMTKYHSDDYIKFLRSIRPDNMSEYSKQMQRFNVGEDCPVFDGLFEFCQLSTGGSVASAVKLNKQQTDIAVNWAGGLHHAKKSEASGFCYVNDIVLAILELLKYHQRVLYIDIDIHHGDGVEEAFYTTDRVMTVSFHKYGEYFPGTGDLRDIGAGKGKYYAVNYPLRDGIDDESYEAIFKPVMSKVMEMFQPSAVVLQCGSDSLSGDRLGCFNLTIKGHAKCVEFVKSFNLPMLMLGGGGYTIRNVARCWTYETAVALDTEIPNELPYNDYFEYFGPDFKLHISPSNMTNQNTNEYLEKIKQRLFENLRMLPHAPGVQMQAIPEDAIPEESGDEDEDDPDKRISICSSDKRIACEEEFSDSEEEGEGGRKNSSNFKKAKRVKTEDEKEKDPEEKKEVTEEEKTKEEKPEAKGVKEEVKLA
# Chain of Histone deacetylase 2 (Q92769 whole entry): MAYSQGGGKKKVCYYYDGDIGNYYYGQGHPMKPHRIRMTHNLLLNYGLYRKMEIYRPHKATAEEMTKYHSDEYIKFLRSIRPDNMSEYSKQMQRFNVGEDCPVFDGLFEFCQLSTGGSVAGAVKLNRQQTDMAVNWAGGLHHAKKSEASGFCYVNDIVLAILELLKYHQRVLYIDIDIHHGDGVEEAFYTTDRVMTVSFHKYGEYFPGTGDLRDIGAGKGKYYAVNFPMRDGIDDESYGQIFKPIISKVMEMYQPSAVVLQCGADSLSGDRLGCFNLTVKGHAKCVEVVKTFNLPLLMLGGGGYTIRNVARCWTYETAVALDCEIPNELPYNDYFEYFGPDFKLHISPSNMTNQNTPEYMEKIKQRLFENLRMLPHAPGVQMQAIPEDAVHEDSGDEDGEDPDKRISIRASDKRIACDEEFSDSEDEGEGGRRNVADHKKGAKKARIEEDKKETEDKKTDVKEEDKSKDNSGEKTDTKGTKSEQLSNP
# Chain of Histone deacetylase 3 (O15379 whole entry): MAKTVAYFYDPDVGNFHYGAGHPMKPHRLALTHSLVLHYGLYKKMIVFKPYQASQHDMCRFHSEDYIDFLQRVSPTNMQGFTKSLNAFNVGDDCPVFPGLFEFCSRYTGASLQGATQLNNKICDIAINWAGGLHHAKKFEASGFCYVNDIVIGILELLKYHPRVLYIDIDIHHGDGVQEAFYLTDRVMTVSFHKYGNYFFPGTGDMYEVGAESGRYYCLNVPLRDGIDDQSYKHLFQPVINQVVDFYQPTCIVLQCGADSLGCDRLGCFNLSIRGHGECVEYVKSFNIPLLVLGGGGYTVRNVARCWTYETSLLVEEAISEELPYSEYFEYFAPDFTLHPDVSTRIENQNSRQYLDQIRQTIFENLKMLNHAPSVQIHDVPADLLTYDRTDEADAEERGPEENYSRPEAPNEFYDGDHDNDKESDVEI
structure (smiles),measurement,setting,value
Nc1ccccc1NC(=O)c1ccc(C(=O)NCCNc2nonc2/C(=N/O)Nc2ccc(F)c(Br)c2)cc1,IC50,[1],66.5 nM
same,IC50,[2],69 nM
same,IC50,[3],17600 nM
same,IC50,[4],59800 nM
same,IC50,[5],16700 nM
same,IC50,[6],5120 nM
same,IC50,[7],11700 nM
same,Activity,[8],Dose-dependent effect
same,Activity,[9],18.8%
same,Activity,[10],29.9%
same,Activity,[11],48.9%
same,Activity,[12],47.4%
same,Activity,[13],Tde
same,EC50,[14],410 nM
same,LC50,[15],24770 nM
same,selectivity ratio,[16],60.4
same,IC50,[17],179 nM
same,IC50,[18],45 nM
same,IC50,[19],70 nM
same,half-life at 1 µM,[20],0.806 h
same,CL(app),[21],28.7 µL/min/mg
same,Cmax,[22],5760 ng/mL
same,Cmax,[23],12000 ng/mL
same,Tmax,[24],2 h
same,Tmax,[25],4.98 min
same,half-life,[26],3.4 h
same,half-life,[27],1.4 h
same,AUC(0-inf),[28],33500 ng·h/mL
same,AUC(0-inf),[29],3650 ng·h/mL
same,bioavailability,[30],18%
same,inhibition,[31],Active
same,Stability,[32],Stable
same,solubility,[33],< 10 µg/mL
same,inhibition in vivo at 100 mg/kg,[34],56%
same,Activity,[35],Non-Toxic
same,AUC,[36],60 µM·h
same,half-life,[37],3.4 h
